How the values were obtained:
Format in all cases: in vivo
[1] = system: barnyardgrass (Echinochloa crus-galli); assay: Test A pre-/postemergence plant response
Procedure, shortened: (§1)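 Seeds were planted in blended loam soil and sand, then treated preemergence by directed soil spray. At that time, emerged plants (one- to two-leaf, 2–10 cm) received postemergence applications of the same surfactant-containing formulation. Injury was assessed visually on a 0–100 scale after approximately 10 days.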

corn (Zea mays) = assay: Test A pre-/postemergence plant response
Procedure, shortened: as §1

[2] = system: giant foxtail (Setaria faberi); assay: Test A pre-/postemergence plant response
Procedure, shortened: as §1

[3] = system: large crabgrass (Digitaria sanguinalis); assay: Test A pre-/postemergence plant response
Procedure, shortened: as §1

[4] = system: morningglory (Ipomoea coccinea); assay: Test A pre-/postemergence plant response
Procedure, shortened: as §1

[5] = system: pigweed (Amaranthus retroflexus); assay: Test A pre-/postemergence plant response
Procedure, shortened: as §1

[6] = system: velvetleaf (Abutilon theophrasti); assay: Test A pre-/postemergence plant response
Procedure, shortened: as §1

[7] = system: wheat (Triticum aestivum); assay: Test A pre-/postemergence plant response
Procedure, shortened: as §1

[8] = system: blackgrass (Alopecurus myosuroides); assay: Test B pre-/postemergence plant response; conditions: for Blackgrass plant response rating: 8 g ai/ha
Text: (§2) Seeds of plant species selected from blackgrass (Alopecurus myosuroides), downy bromegrass (Bromus tectorum), green foxtail (Setaria viridis), Italian ryegrass (Lolium multiflorum), wheat (Triticum aestivum), wild oat (Avena fatua), catchweed bedstraw (Galium aparine), bermudagrass (Cynodon dactylon), surinam grass (Brachiaria decumbens), cocklebur (Xanthium strumarium), corn (Zea mays), large crabgrass (Digitaria sanguinalis), woolly cupgrass (Eriochloa villosa), giant foxtail (Setaria faberii), goosegrass (Eleusine indica), johnsongrass (Sorghum halepense), kochia (Kochia scoparia), lambsquarters (Chenopodium album), morningglory (Ipomoea coccinea), eastern black (E.B.) nightshade (Solanum ptycanthum), yellow nutsedge (Cyperus esculentus), pigweed (Amaranthus retroflexus), common ragweed (Ambrosia elation), Russian thistle (Salsola iberica), soybean (Glycine max), common (oilseed) sunflower (Helianthus annuus), and velvetleaf (Abutilon theophrasti) were planted and treated preemergence with test chemicals formulated in a non-phytotoxic solvent mixture which included a surfactant.
(§3) At the same time, plants selected from these crop and weed species and also winter barley (Hordeum vulgare), canarygrass (Phalaris minor), chickweed (Stellaria media) and windgrass (Apera spica-venti) were treated with postemergence applications of some of the test chemicals formulated in the same manner. Plants ranged in height from 2 to 18 cm (1- to 4-leaf stage) for postemergence treatments.
(§4) Plant species in the flooded paddy test consisted of rice (Oryza sativa), umbrella sedge (Cyperus difformis), ducksalad (Heteranthera limosa) and barnyardgrass (Echinochloa crus-galli) grown to the 2-leaf stage for testing. At time of treatment, test pots were flooded to 3 cm above the soil surface, treated by application of test compounds directly to the paddy water, and then maintained at that water depth for the duration of the test. Treated plants and controls were maintained in a greenhouse for 13 to 15 days, after which time all species were compared to controls and visually evaluated. Plant response ratings, summarized in Table B, are based on a scale of 0 to 100 where 0 is no effect and 100 is complete control. A dash (-) response means no test result.

[9] = system: catchweed bedstraw (Galium aparine); assay: Test B pre-/postemergence plant response; conditions: Preemergence
Text: as §2, §3, §4

[10] = system: yellow nutsedge (Cyperus esculentus); assay: Test B pre-/postemergence plant response
Text: as §2, §3, §4

[11] = Postemergence, 31 g ai/ha, 0 to 100 scale (0 no effect, 100 complete control)
[12] = Postemergence, 125 g ai/ha, 0 to 100 scale, 0 no effect, 100 complete control
[13] = Preemergence, 31 g ai/ha, 0 to 100 scale, 0 is no effect, 100 is complete control
[14] = Preemergence, 125 g ai/ha, 0 to 100 scale (0 no effect, 100 complete control)
[15] = Postemergence, 16 g ai/ha, scale 0 to 100
[16] = Postemergence, 31 g ai/ha, scale 0 to 100
[17] = Postemergence, 62 g ai/ha, scale 0 to 100, 0 no effect, 100 complete control
[18] = Preemergence, 16 g ai/ha, scale 0 to 100 (0 no effect, 100 complete control)
[19] = Preemergence, 31 g ai/ha, scale 0 to 100 (0 no effect, 100 complete control)
[20] = Preemergence, 62 g ai/ha, 0 to 100 scale, 0 no effect, 100 complete control
[21] = 8 g ai/ha, postemergence, 0-100 scale
[22] = Preemergence, 8 g ai/ha, scale 0 to 100
[23] = Postemergence, 31 g ai/ha, scale 0 to 100, 0 no effect, 100 complete control
[24] = Preemergence, 31 g ai/ha, 0 to 100 scale, 0 no effect, 100 complete control
[25] = Preemergence, 62 g ai/ha, scale 0 to 100

Cc1cc(-c2ccc(Cl)cc2)nn1-c1c(OC(=O)OCC(C)C)cnn(C)c1=O [Compound 57]
Plant response rating, Barnyardgrass [1, 11]: 0
Plant response rating, Barnyardgrass [1, 12]: 80
Plant response rating, Barnyardgrass [1, 13]: 60
Plant response rating, Barnyardgrass [1, 14]: 100
Plant response rating, Corn (corn (Zea mays); [11]): 0
Plant response rating, Corn (corn (Zea mays); [12]): 60
Plant response rating, Corn (corn (Zea mays); [13]): 0
Plant response rating, Corn (corn (Zea mays); [14]): 50
Plant response rating, Foxtail, Giant [2, 11]: 0
Plant response rating, Foxtail, Giant [2, 12]: 90
Plant response rating, Foxtail, Giant [2, 13]: 90
Plant response rating, Foxtail, Giant [2, 14]: 100
Plant response rating, Crabgrass, Large [3, 11]: 0
Plant response rating, Crabgrass, Large [3, 12]: 80
Plant response rating, Crabgrass, Large [3, 13]: 50
Plant response rating, Crabgrass, Large [3, 14]: 100
Plant response rating, Morningglory [4, 11]: 0
Plant response rating, Morningglory [4, 12]: 0
Plant response rating, Morningglory [4, 13]: 0
Plant response rating, Morningglory [4, 14]: 0
Plant response rating, Pigweed [5, 11]: 0
Plant response rating, Pigweed [5, 12]: 0
Plant response rating, Pigweed [5, 13]: 0
Plant response rating, Pigweed [5, 14]: 0
Plant response rating, Velvetleaf [6, 11]: 0
Plant response rating, Velvetleaf [6, 12]: 0
Plant response rating, Velvetleaf [6, 13]: 0
Plant response rating, Velvetleaf [6, 14]: 0
Plant response rating, Wheat [7, 11]: 0
Plant response rating, Wheat [7, 12]: 50
Plant response rating, Wheat [7, 13]: 0
Plant response rating, Wheat [7, 14]: 70
Blackgrass plant response rating ([8]; postemergence, 0-100 scale): 40
Plant response rating, Blackgrass [8, 15]: 80
Plant response rating, Blackgrass [8, 16]: 80
Plant response rating, Blackgrass [8, 17]: 95
Plant response rating, Blackgrass [8, 18]: 100
Plant response rating, Blackgrass [8, 19]: 100
Plant response rating, Blackgrass [8, 20]: 100
Blackgrass plant response rating ([8]; Preemergence, scale 0 to 100): 40
Plant response rating, Galium ([9]; 31 g ai/ha, scale 0 to 100 (0 no effect, 100 complete control)): 0
Plant response rating, Galium ([9]; 62 g ai/ha, 0 to 100 scale, 0 no effect, 100 complete control): 0
Galium plant response rating ([9]; 8 g ai/ha, scale 0 to 100): 0
Galium plant response rating ([9]; 16 g ai/ha, scale 0 to 100): 0
Nutsedge, Yellow plant response rating [10, 21]: 0
Plant response rating, Nutsedge, Yellow [10, 15]: 0
Plant response rating, Nutsedge, Yellow [10, 16]: 0
Plant response rating, Nutsedge, Yellow [10, 17]: 0
Plant response rating, Nutsedge, Yellow [10, 19]: 0
Plant response rating, Nutsedge, Yellow [10, 20]: 0
Nutsedge, Yellow plant response rating [10, 22]: 0
Nutsedge, Yellow plant response rating ([10]; Preemergence, 16 g ai/ha, scale 0 to 100): 0

Cc1cc(-c2ccc(Cl)cc2)nn1-c1c(OS(C)(=O)=O)cnn(C)c1=O [Compound 36]
Plant response rating, Barnyardgrass [1, 11]: 80
Plant response rating, Barnyardgrass [1, 12]: 100
Plant response rating, Barnyardgrass [1, 13]: 90
Plant response rating, Barnyardgrass [1, 14]: 100
Plant response rating, Corn (corn (Zea mays); [11]): 50
Plant response rating, Corn (corn (Zea mays); [12]): 80
Plant response rating, Corn (corn (Zea mays); [13]): 50
Plant response rating, Corn (corn (Zea mays); [14]): 80
Plant response rating, Foxtail, Giant [2, 11]: 90
Plant response rating, Foxtail, Giant [2, 12]: 90
Plant response rating, Foxtail, Giant [2, 13]: 100
Plant response rating, Foxtail, Giant [2, 14]: 100
Plant response rating, Crabgrass, Large [3, 11]: 80
Plant response rating, Crabgrass, Large [3, 12]: 90
Plant response rating, Crabgrass, Large [3, 13]: 70
Plant response rating, Crabgrass, Large [3, 14]: 100
Plant response rating, Morningglory [4, 12]: 0
Plant response rating, Morningglory [4, 13]: 0
Plant response rating, Morningglory [4, 14]: 0
Plant response rating, Pigweed [5, 11]: 0
Plant response rating, Pigweed [5, 12]: 10
Plant response rating, Pigweed [5, 13]: 0
Plant response rating, Pigweed [5, 14]: 30
Plant response rating, Velvetleaf [6, 11]: 0
Plant response rating, Velvetleaf [6, 12]: 0
Plant response rating, Velvetleaf [6, 13]: 0
Plant response rating, Velvetleaf [6, 14]: 0
Plant response rating, Wheat [7, 11]: 0
Plant response rating, Wheat [7, 12]: 60
Plant response rating, Wheat [7, 13]: 50
Plant response rating, Wheat [7, 14]: 90
Blackgrass plant response rating ([8]; postemergence, 0-100 scale): 0
Plant response rating, Blackgrass [8, 15]: 50
Plant response rating, Blackgrass [8, 23]: 50
Plant response rating, Blackgrass [8, 17]: 80
Plant response rating, Blackgrass [8, 18]: 80
Plant response rating, Blackgrass [8, 24]: 100
Plant response rating, Blackgrass [8, 25]: 100
Blackgrass plant response rating ([8]; Preemergence, scale 0 to 100): 80
Plant response rating, Galium ([9]; 16 g ai/ha, scale 0 to 100 (0 no effect, 100 complete control)): 0
Plant response rating, Galium ([9]; 31 g ai/ha, 0 to 100 scale, 0 no effect, 100 complete control): 0
Plant response rating, Galium ([9]; 62 g ai/ha, scale 0 to 100): 0
Galium plant response rating ([9]; 8 g ai/ha, scale 0 to 100): 0
Nutsedge, Yellow plant response rating [10, 21]: 0
Plant response rating, Nutsedge, Yellow [10, 15]: 0
Plant response rating, Nutsedge, Yellow [10, 23]: 0
Plant response rating, Nutsedge, Yellow [10, 17]: 0
Plant response rating, Nutsedge, Yellow [10, 18]: 0
Plant response rating, Nutsedge, Yellow [10, 24]: 0
Plant response rating, Nutsedge, Yellow [10, 25]: 0
Nutsedge, Yellow plant response rating [10, 22]: 0
